Laboratory results reported in US11850266B2, “Cardiomyocytes and compositions and methods for producing the same” (President and Fellows of Harvard College, priority 2019, dated 2023).

Columns and labels:
Type in all cases: cell-based, human
[1] = tested on: BJRiPS-derived cardiomyocytes; experiment: Example 3 preliminary qPCR of maturation genes in BJRiPS-derived cardiomyocytes
Experimental: The BJRiPS cell line was used to generate preliminary data. BJRiPS cells were differentiated into cardiomyocytes according to previously published protocols (6). After the onset of beating (around day 10), cardiomyocytes were treated with vehicle (DMSO) or different concentrations of rapamycin, Torin1, or Torin2 for different time periods. Beating rate was counted manually. Some cells were harvested after 5-7 days of treatment for flow cytometry analysis. Other cells were harvested after 7 days of treatment for qPCR.

[2] = tested on: TNNT2+ iPSC-derived cardiomyocytes; experiment: Cell cycle analysis by flow cytometry (Hoechst 33342 / pyronin Y) of TNNT2+ cardiomyocytes
Experimental: (§1) To prepare for differentiation, iPSCs were plated at a density between 20,000 to 80,000 cells (depending on the cell line) per well of a 12-well plate at four days prior to onset of differentiation. Cells were differentiated according to the protocol previously described by Lian et al. with some modifications (FIG. 1A) (1). Basal media was changed from StemFlex to RPMI/B27 on day 0 of differentiation. The GSK3 inhibitor, CHIR99021 (6 μM), was added for 48 hours from day 0 to day 2 of differentiation when cells were approximately 70-80% confluent. The Wnt antagonist IWP4 (5 μM) was added from days 2 to 4 of differentiation. Insulin (10 μg/ml) was added to the media starting on day 7 of differentiation, and media was changed every 2-3 days. In general, higher purity (TNNT2+) cardiomyocytes were observed when beating initiated prior to day 10 of differentiation, therefore only batches with onset of beating between days 7-10 of differentiation were included in this study. Beating cardiomyocytes were treated with Torin1 (200 nM, unless otherwise noted) or vehicle (0.02% dimethylsulfoxide (DMSO)) beginning at ˜2 days after onset of beating for 7 days (media changed with fresh Torin1 or DMSO every 2-3 days), unless otherwise noted. After Torin1 treatment, media was switched back to RPMI/B27/insulin and maintained with media change every 2-3 days until endpoint assay. In a few assays, fatty acids were added in the form of chemically defined lipids (Gibco) diluted 1:1000 simultaneous with Torin1 treatment. In some other assays, fetal bovine serum (10% FBS) was added to cells after completion of Torin treatment for 2-4 days.
(§2) Cells were dissociated and 5×10^5 to 1×10^6 cells were used per condition. For cell cycle analysis, 5×10^5 cells per condition were fixed in 70% cold ethanol for at least 2 hours to overnight at −20 degrees C. Cells were stained first with AlexaFluor 647-TNNT2 in Permeabilization Buffer (Thermo) then with Hoechst 33342 (2 μg/ml) and pyronin Y (4 μg/ml) for 20 minutes to distinguish between cells in G0, G1, and S-G2-M phases. For other stains, cells were fixed in eBioscience Intracellular Fixation buffer for 30 minutes followed washing twice in eBioscience Permeabilization Buffer and stained with the appropriate primary antibody (Table 2) in eBioscience FACS Staining buffer for 30-60 minutes. If a secondary antibody was used, cells were incubated with the appropriate secondary antibody (Table 2) for 30-60 minutes. The geometric mean fluorescence intensity (MFI) was quantified for TNNT2 and Kir2.1 antibodies. Data were acquired via a BD LSRII instrument and analyzed using FlowJo software.

[3] = tested on: iPSC-derived cardiomyocytes; experiment: Immunocytochemistry, sarcomere length; conditions: versus control, BJRiPS-CMs, FIG. 2H
Experimental: Cells were dissociated from 12 well plates after differentiation with 0.1% trypsin-EDTA and replated into Geltrex-coated 4-chamber microscope slides. Cells were fixed in 4% paraformaldehyde then permeabilized with 0.5% Triton X-100. After blocking with 5% BSA, cells were incubated with primary antibodies (Table 2) for 30 minutes at room temperature followed by incubation with the secondary antibody (Table 2) for 45 minutes at room temperature in the dark. After washing with phosphate buffered saline (PBS), Vectashield mounting agent with DAPI (for slides) or DAPI (for plates) was applied and cells were visualized with a confocal microscope (Zeiss LSM 700). Muscular thin films (MTFs) were stained in a similar manner except DAPI (1 μg/ml) was applied for 5 minutes before rinsing and transferring MTFs into PBS until imaging.

[4] = tested on: iPSC-derived cardiomyocytes; experiment: Flow cytometry (TNNT2+ purity, MFI of TNNT2 and Kir2.1) and cell counts
Experimental: as §1, §2

[5] = tested on: iPSC-derived cardiomyocytes; experiment: Voltage (FluoVolt) analysis with Vala Kinetic Image Cytometer
Experimental: Following completion of Torin1 treatment, cardiomyocytes were dissociated as described above then replated at a density of 20,000-30,000 cells per well in a Geltrex-coated Greiner Cellstar black 96 well plate. FluoVolt dye (1:1000 from stock in the FluoVolt Membrane Potential Kit, Thermo) and Hoechst 33258 stain (20 μg/ml) in RPMI1640 (no phenol red) (supplemented with OxyFluor (Oxyrase, 1:100 dilution), 10 mM sodium lactate) were added to each well 15 minutes prior to assay. Cells were electrically stimulated with 15 V at a frequency of 0.5 pulses/sec and a pulse width of 5 msec for 5 pulses using the IC200 Kinetic Image Cytometer (Vala). Images were acquired at 20× and at a frame rate of 70 frames per second. Voltage analysis was performed using the CyteSeer image analysis software, which automatically recognizes Hoechst-stained nuclei, segments, and identifies each cell to quantify voltage data for each cell captured in the field of view (34). Cells were identified by Hoechst-stained nuclei, segmented into individual cells and automatically numbered by CyteSeer software (FIG. 4C). Within each cell, fluorescence intensity was recorded from within a circular region within each numbered, nucleated cell. […] Data from approximately 300-500 individual cells were included for analysis for each condition. Baseline fluorescence was used to normalize for variability in fluorescence intensity between individual cells. The peak rise time, CTD25 (25% duration of the calcium transient, or duration at 25% decline from maximum amplitude), CTD75 (75% duration of the calcium transient, or duration at 75% decline from maximum amplitude), T75-25 (time for voltage to decay from 75% to 25% of maximum), and downstroke velocity were quantified using the CyteSeer image analysis software.

[6] = Torin1 10, 50, 200 nM, days 11-18, FIG. 32

Compound: CCC(=O)N1CCN(c2ccc(-n3c(=O)ccc4cnc5ccc(-c6cnc7ccccc7c6)cc5c43)cc2C(F)(F)F)CC1 [Torin1]
- RNA expression of ryanodine receptor (RyR) and SCN5a ([1]; FIG. 32): trend toward increased RNA expression
- TNNI3 gene expression increase ([1]; Torin1 200 nM (highest dose tested), FIG. 30): ~10 fold
- RNA expression of TNNT2, TNNI3, MYH6, MYH7 ([1]; Torin1 10, 50, 200 nM, days 11-18, FIG. 30): increased RNA expression of these proteins in a dose dependent manner
- KCNJ2 expression [1, 6]: trend toward a dose-dependent increase
- ion channel gene expression (KCNJ2, HCN4, SCN5a, RYR2, CACNA1c, SERCA2a) [1, 6]: Ion channel gene expression increased
- NPPB (BNP) mRNA expression ([1]; Torin1 10, 50, 200 nM, days 11-18, FIG. 33): increased
- PGC1-alpha (PPARGC1a) mRNA expression ([1]; Torin1 10, 50, 200 nM, days 11-18, FIG. 35): increased expression
- REST/NRSF expression ([1]; dose-dependent, Torin1 10, 50, 200 nM, FIG. 34): increases gene expression for REST
- RNA expression of markers of maturation including TNNI3 and KCNJ2 ([1]; preliminary data, after differentiation): increased RNA expression
- percentage of Torin1-treated cells in G0 after 10% FBS ([2]; 10% FBS 48 hours starting two days after completion of Torin1, FIG. 1I): significant decrease
- quiescent (G0) cells ([2]; Torin1 200 nM 1 week, vehicle control 24%, FIG. 1G): 48%
- G1 cells ([2]; Torin1 200 nM 1 week, vehicle control 47%, FIG. 1G): 27%
- percentage of quiescent (G0) TNNT2+ cardiomyocytes versus control ([2]; nutlin-3a 10 μM 24 hours, Torin1 200 nM 7 days, or both, BJRiPS-CMs, FIG. 6B): increased the percentage of quiescent (G0) TNNT2+ cardiomyocytes
- percentage of TNNT2+ cardiomyocytes in G1 phase versus control ([2]; nutlin-3a 10 μM 24 hours, Torin1 200 nM 7 days, or both, FIG. 6B): decreased the percentage of TNNT2+ cardiomyocytes in G1 phase
- sarcomere length [3]: no differences
- Torin1-induced increase in TNNT2 MFI after 10% FBS ([4]; 10% FBS 2 days after completion of Torin1, UCSD-CMs, FIG. 2I): reversed
- TNNT2 MFI with shorter (5 days) or later (starting 10 days after initiation of beating) treatment ([4]; FIGS. 10, 11): beneficial effects on TNNT2 MFI
- MFI of extracellular Kir2.1 by flow cytometry ([4]; Torin1 7 days, BJRiPS, FIG. 4B): significantly increased
- TNNT2 MFI by flow cytometry ([4]; Torin1 7 days, Gibco iPS-CMs, FIG. 2C): dose-dependent increase
- absolute numbers of cells per well ([4]; Torin1 from day 9, 12 well plate, BJRiPS-CMs, FIG. 1C): non-significant trend toward decreased absolute numbers of cells per well
- purity of TNNT2+ cells ([4]; non-significant trend, Gibco iPS-CMs, FIG. 1D): increased purity of TNNT2+ cells
- TNNT2 protein by mean fluorescence intensity (flow cytometry) ([4]; three cell lines (BJRiPS, GCaMP, Gibco), FIG. 18E): significant increase in protein expression of TNNT2
- action potential profile ([5]; FluoVolt, FIG. 4E): longer plateau phase and a sharper upstroke and downstroke
- action potential peak rise time ([5]; UCSD-CMs, FIG. 4F): significant decrease
- downstroke velocity ([5]; UCSD-CMs, FIG. 4G): significant increase
- CTD25 ([5]; UCSD-CMs, FIG. 4H): no changes
- CTD75 ([5]; UCSD-CMs, FIG. 4I): significant decrease
- T75-25 time ([5]; UCSD-CMs, FIG. 4J): significant decrease
